The source of these data is patent publication US6828344B1, “Inhibitors of phospholipase enzymes” (Genetics Institute, LLC, priority 1998, dated 2004).

What is called IC50 is the concentration needed to halve the response being measured.

The structures appear in SMILES notation.

The experiment concerns the target T1, cPLA2 (Homo sapiens, UniProt P47712).
T1 sequence (P47712 1-749): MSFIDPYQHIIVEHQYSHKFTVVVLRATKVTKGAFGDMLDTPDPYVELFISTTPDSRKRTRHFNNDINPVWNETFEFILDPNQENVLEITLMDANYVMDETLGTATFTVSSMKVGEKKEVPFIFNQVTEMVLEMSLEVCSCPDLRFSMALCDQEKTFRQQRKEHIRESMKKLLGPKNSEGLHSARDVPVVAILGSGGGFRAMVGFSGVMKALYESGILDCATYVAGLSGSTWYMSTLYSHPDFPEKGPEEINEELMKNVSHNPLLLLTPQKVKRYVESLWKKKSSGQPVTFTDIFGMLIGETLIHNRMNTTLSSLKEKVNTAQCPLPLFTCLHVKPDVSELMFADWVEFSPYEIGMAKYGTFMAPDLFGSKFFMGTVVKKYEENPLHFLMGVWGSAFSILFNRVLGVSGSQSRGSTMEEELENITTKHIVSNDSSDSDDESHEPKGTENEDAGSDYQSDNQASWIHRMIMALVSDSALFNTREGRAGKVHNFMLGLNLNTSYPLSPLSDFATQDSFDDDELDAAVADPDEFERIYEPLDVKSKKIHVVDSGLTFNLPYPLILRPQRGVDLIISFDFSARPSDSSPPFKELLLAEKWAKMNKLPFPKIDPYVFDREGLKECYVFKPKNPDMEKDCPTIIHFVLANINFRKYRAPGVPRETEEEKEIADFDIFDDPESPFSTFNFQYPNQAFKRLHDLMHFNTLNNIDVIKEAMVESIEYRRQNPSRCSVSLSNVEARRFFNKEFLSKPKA
Put plainly: Coumarine assay (cPLA2 inhibition). In kind it is biochemical. To be noted: 7-hydroxycoumarinyl 6-heptenoate as monomeric substrate, fluorescence 360/460 nm; read-out: Coumarin IC50. The method, then: 7-hydroxycoumarinyl 6-heptenoate was used as a monomeric substrate for cPLA2 as reported previously (Huang, Z. et al., 1994, Nalytical Biochemistry 222, 110-115). Inhibitors were mixed with 200 μL assay buffer (80 mM Heped, pH 7.5, l mM EDTA) containing 60 μM 7-hydroxycoumarinyl 6-heptenoate. The reaction was initiated by adding 4 μg cPLA2 in 50 μL assay buffer. Hydrolysis of the 7-hydroxycoumarinyl 6-heptenoate ester was monitored in a fluorometer by exciting at 360 nm and monitoring emission at 460 nm. Enzyme activity is proportional to the increase in emission at 460 nm per minute. In the presence of a cPLA2 inhibitor, the rate of increase is less.
Consider `Cc1c(C(c2ccccc2)c2ccccc2)c2cc(Cl)ccc2n1C/C=C/COc1ccc(C(=O)O)cc1` [Example 88, 4-{[(E)-4-(3-benzhydryl-5-chloro-2-methyl-1H-indol-1-yl)-2-butenyl]oxy}benzoic acid], for which the IC50 was 1100 nM. `Cc1c(C(c2ccccc2)c2ccccc2)c2cc(Cl)ccc2n1CCOc1ccc(C(=O)O)cc1` [Example 89, 4-[2-(3benzhydryl-5-chloro-2-methyl-1H-indol-1-yl)ethoxy]benzoic acid]: the IC50 came to 2500 nM. For `Cc1c(C(c2ccccc2)c2ccccc2)c2cc(Cl)ccc2n1CCOc1ccc(CCC(=O)O)cc1` [Example 90, 3-{4-[2-(3-benzhydryl-5-chloro-2-methyl-1H-indol-1-yl)ethoxy]phenyl}propanoic acid] the value was 1200 nM.

With `O=C(O)CCc1ccc(S(=O)(=O)CCn2cc(C(c3ccccc3)c3ccccc3)c3ccc(Cl)cc32)cc1` [Example 91, 3(4-{[2-(3-benzhydryl-6-chloro-1H-indol-1-yl)ethyl]sulfonyl}phenyl)propanoic acid], the half-inhibitory concentration (IC50) was 4000 nM. For `O=C(O)c1ccc(S(=O)(=O)CCn2cc(C(c3ccccc3)c3ccccc3)c3ccc(Cl)cc32)cc1` [Example 92, 4-{[2-(3-benzhydryl-6-chloro-1H-indol-1-yl)ethyl]sulfonyl}benzoic acid] the value was 9000 nM; for `Cc1c(C(c2ccccc2)c2ccccc2)c2ccccc2n1CCOc1ccc(C(=O)O)cc1` [Example 93, 4-[2-(3-benzhydryl-2-methyl-1H-indol-1-yl)ethoxy]benzoic acid], 2500 nM.
